Data on nine compounds can be found in PubChem BioAssay (NCI).

Holding throughout (assay): DTP human tumour cell line panel, 48 h
Experiment [1] deals with RPMI-8226 leukemia.
Experiment [2] relates to M14 melanoma.
The subject of experiment [3] is HCT-116 colon.
Experiment [4] has as its system HT29 colon.
In experiment [5] the test system is UACC-62 melanoma.
Experiment [6] relates to SF-295 CNS.
Experiment [7] concerns SNB-19 CNS.
Experiment [8] concerns SK-MEL-2 melanoma.
The test system of experiment [9] is T-47D breast.
Experiment [10] deals with MDA-MB-231 breast.
The subject of experiment [11] is HS 578T breast.
Experiment [12] concerns 786-0 renal.
Experiment [13] has as its system SF-539 CNS.
The test system of experiment [14] is UACC-257 melanoma.
Experiment [15] deals with NCI-H23 lung.

What is called TGI is the concentration giving total growth inhibition.

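Briefly, cells in 96-well plates were exposed to five compound concentrations for 48 h, and endpoints were estimated by linear interpolation. TGI marks complete inhibition of growth.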 Where only a bound is given, the exact number is not on record here.

With `COc1cc([C@@H]2c3cc4c(cc3[C@@H](N=Cc3ccc(C(=O)O[C@H]5C[C@H]6OC[C@@]6(OC(C)=O)[C@H]6[C@H](OC(=O)c7ccccc7)[C@]7(O)C[C@H](OC(=O)[C@H](OC(=O)c8ccc(C=N[C@@H]9c%10cc%11c(cc%10[C@@H](c%10cc(OC)c(O)c(OC)c%10)[C@H]%10C(=O)OC[C@@H]%109)OCO%11)cc8)[C@@H](NC(=O)c8ccccc8)c8ccccc8)C(C)=C([C@@H](OC(C)=O)C(=O)[C@]56C)C7(C)C)cc3)C3COC(=O)C32)OCO4)cc(C)c1O` (stereo not given in full), the TGI in [1] was more than 50 µM; in experiment [2], more than 21 µM; in experiment [3] it was more than 50 µM; in [4], more than 25.2 µM; in experiment [5], more than 39.2 µM; in experiment [6], more than 50 µM. Also, the TGI in experiment [7] was more than 50 µM; in experiment [8], more than 50 µM; in experiment [9], more than 50 µM; in experiment [10], more than 43.4 µM; in experiment [11], more than 50 µM; in [12], more than 50 µM. The TGI in experiment [13] was more than 37.8 µM; in [14], more than 50 µM; in [15], more than 50 µM.
`N/C(=N/O)c1cn(C2OC(CO)C(O)C2O)c2ncnc(NO)c12` (stereo not given): the TGI was 1.86 µM in experiment [1]; 2.88 µM in experiment [2]; more than 77.4 µM in experiment [3]; more than 100 µM in experiment [4]; 1.66 µM in experiment [5]; 54.7 µM in [6]. In addition, the TGI in [7] is more than 100 µM; in experiment [8], 0.176 µM; in experiment [9], more than 35.3 µM; in experiment [10] it was 5.05 µM; in experiment [11], more than 100 µM; in experiment [12], more than 100 µM. The TGI in experiment [13] turned out to be 5.03 µM; in [14], 4.4 µM; in [15], 2.29 µM.
Turning to `c1ncc(C23C4C5C6C4C2C6C53)[nH]1` (stereo not given), the TGI in [1], in [2], in experiment [3], in experiment [4], in experiment [5] and in [6] was more than 100 µM in each case. For the same compound, the TGI in [7], in experiment [8], in [9], in experiment [10], in [11] and in experiment [12] was more than 100 µM throughout. Besides, the TGI in [13], in experiment [14] and in experiment [15] was more than 100 µM in each case.
With `NC(N)=NCCCS(=O)(=O)Nc1ccc(Nc2c3ccccc3nc3cc([N+](=O)[O-])ccc23)cc1`, the TGI was 66.6 µM in experiment [1]; more than 87.2 µM in experiment [2]; 63.5 µM in experiment [3]; 55 µM in [4]; 51.7 µM in experiment [5]; 59 µM in experiment [6]. The TGI in experiment [7] was found to be 28.8 µM; in experiment [8], 66.1 µM; in experiment [9] it was 11.4 µM; in [10], 66.5 µM; in experiment [11], 50.9 µM; in experiment [12], 53.2 µM. Also, the TGI in [13] is 52.1 µM; in experiment [14] it was 68.1 µM; in experiment [15], 35.6 µM.
Regarding `CCCCC[C@H]1CC=CC(=O)O1`, the TGI is 19.3 µM in experiment [1]; 26.7 µM in experiment [2]; 12.9 µM in [3]; 19.8 µM in [4]; 23 µM in experiment [5]; 37.1 µM in experiment [6]. Further, the TGI in experiment [7] turned out to be 28.2 µM; in experiment [8], 19.1 µM; in [9], 30.9 µM; in [10], 23 µM; in experiment [11], 50.6 µM; in [12], 13.3 µM. The values for the TGI in experiment [13], in experiment [14] and in experiment [15] were 4.82 µM, 32.6 µM and more than 100 µM, respectively.
For `O=C(CCl)Nc1ccc(-c2nc3ccccc3s2)cc1`, the TGI came to 5.34 µM in experiment [1]; 4.98 µM in experiment [2]; 5.81 µM in experiment [3]; 5.57 µM in experiment [4]; 8.71 µM in experiment [5]; 15 µM in experiment [6]. In addition, the TGI amounted to 9.99 µM in [7]; 8.37 µM in experiment [8]; 5.59 µM in experiment [9]; 16.8 µM in experiment [10]; 20.1 µM in experiment [11]; 4.62 µM in experiment [12]. Besides, the TGI was 8.16 µM in experiment [13], 11.6 µM in experiment [14] and 10.2 µM in experiment [15].
For `CSC(=S)Nc1cc(C)ccn1`, the TGI in [1], in [2], in [3], in experiment [4], in experiment [5] and in experiment [6] was more than 100 µM throughout. Further, the concentration for total growth inhibition (TGI) in experiment [7] was more than 100 µM; in experiment [8], more than 100 µM; in [9] it was more than 100 µM; in [10], 88.8 µM; in experiment [11] it was more than 100 µM; in [12], more than 100 µM. Moreover, the TGI in [13], in experiment [14] and in [15] was more than 100 µM in each case.
As for `C=C1C(=O)OC2C3C(=C)[C@@H](OC(C)=O)CC3C(C)=CC(OC(=O)C(C)(O)C(C)OC(C)=O)[C@@H]12` (stereo not given in full), the TGI is 65.7 µM in experiment [1]; 19.7 µM in experiment [2]; 17.9 µM in experiment [3]; 19.4 µM in experiment [4]; 25.8 µM in [5]; more than 100 µM in [6]. For the same compound, the TGI in experiment [7] is more than 100 µM; in experiment [8] it was 20.6 µM; in experiment [9] it was 39 µM; in [10] it was 34.1 µM; in [11], 40.9 µM; in experiment [12], 24.2 µM. Further, the TGI in experiment [13] amounted to 31.9 µM; in experiment [14] it was 23.2 µM; in experiment [15], 27.3 µM.
For the compound `CC(=O)NC1C(OCc2ccccc2)OC(CO)C(O)C1OC(C)C(=O)NC(C(=O)NC(CCC(=O)Nc1ccc2c(c1)CN1C(=O)c3ccccc3C1=N2)C(N)=O)C(C)C` (stereo not given), the TGI in [1], in [2], in experiment [3], in [4], in experiment [5] and in experiment [6] was more than 100 µM throughout. Further, the TGI in experiment [7], in experiment [8], in experiment [9], in experiment [10], in [11] and in experiment [12] was more than 100 µM each time. Also, the TGI in [13], in [14] and in experiment [15] was more than 100 µM in each case.
